Experimental data taken from US9439904B2, “Pyrimidine compounds and their use as gamma secretase modulators” (Acturum Life Science AB, priority 2013, dated 2016).

How the values were obtained:
Aβ42 [1] = assay: PCN assay: Aβ42 secreted by primary cortical neuronal cells, ELISA; assay type: cell-based; details: primary cortical neuronal cells from 16-day mouse embryos; 16-20 hours incubation with test compound; read-out: pIC50 Aβ42 PCN assay (converted)
Description: Compounds were diluted in 100% DMSO and stored at […] prior to use. Primary cortical neuronal cells (PCN) were isolated from 16-day mouse embryos and cultured in Ham's F12 media containing 10% Foetal bovine serum, 10 mM Hepes, 2 mM L-glutamine and 100 U/mL Penicillin-Streptomycin. 150000-250000 cells/well, in 200 μL cell media were seeded onto 96-well poly-D-Lysine coated plates. After incubation at 37° C., 5% CO2 for five days, the media was exchanged for fresh medium containing test compound diluted ×100, before further incubation for 16-20 hours at 37° C. and 5% CO2. After incubation with test compound the amount of […] secreted to cell medium was analyzed using the solid phase sandwich Enzyme-Linked-Immuno-Sorbent Assay (ELISA)-kit from Invitrogen for detection of mouse βAmyloid 1-42. Potential cytotoxic effects of the compounds were assayed by measuring the ATP content (Via Light) from cell lysate.

Aβ42 [2] = assay: HEK assay: Aβ42 secreted to cell medium, Meso Scale Discovery electrochemiluminescence; assay type: cell-based; details: Homo sapiens, HEK293; HEK cell line stably expressing APPswe; 4-6 hours incubation with test compound; read-out: pIC50 Aβ42 HEK assay (converted)
Description: Compounds were diluted in 100% DMSO and stored at […] prior to use. Human Embryonic Kidney (HEK) cell line stably expressing APP with the Swedish mutation (APPswe) was cultured using Dulbecco's Modified Eagles medium (DMEM) supplied with […] glucose, Na-pyruvate and GlutaMAX, 10% Foetal bovine serum, 100 U/mL penicillin-streptomycin (PEST), 1× non-essential amino acids (NEAA), […] Hepes, 100 μg/mL Zeocine. Cells at about 80% confluence were washed with PBS, detached from culture flasks using 1× Trypsin/EDTA diluted in PBS, re-suspended in cell media and plated in 384-well poly-d-lysine coated cell culture plates at about 10000-15000 cells/well, in 25 μL cell media. Optionally, cryo-preserved cells (frozen and stored at −140° C. in 90% cell media and 10% DMSO) were thawed, washed and plated as above. Next the cells were incubated for 15-24 h at 37° C. and 5% CO2, after which cell medium was changed. Fresh medium containing test compound diluted ×200 from prepared compound plate was added to the cells before further incubation for 4-6 hours at 37° C. and 5% CO2. After incubation with test compound the amount of Aβ peptides, including Aβ42, Aβ40, Aβ39, Aβ38 and Aβ37, secreted to cell medium was analyzed using the electrochemiluminescence assay technology from Meso Scale Discovery Technology, in combination with specific antibodies raised against the different Aβ peptides. Potential cytotoxic effects of the compounds were assayed by measuring the ATP content (ViaLight) from cell lysate.

COc1cc(Nc2nc(COCC(F)(F)F)cc(NC(C)C)n2)ccc1-c1cnnc(C)c1 [Example 23, N^4-Isopropyl-N^2-(3-methoxy-4-(6-methylpyridazin-4-yl)phenyl)-6-((2,2,2-trifluoroethoxy)-methyl)pyrimidine-2,4-diamine]
IC50 (Aβ42 [1]): 79.4 nM | IC50 (Aβ42 [2]): 79.4 nM

COc1cc(Nc2nc(COCC(F)(F)F)cc(CN3CC(F)C3)n2)ccc1-n1cnc(C)c1 [Example 40, 4-((3-Fluoroazetidin-1-yl)methyl)-N-(3-methoxy-4-(4-methyl-1H-imidazol-1-yl)phenyl)-6-((2,2,2-trifluoroethoxy)methyl)pyrimidin-2-amine]
IC50 (Aβ42 [1]): 100 nM | IC50 (Aβ42 [2]): 126 nM

COc1cc(Nc2nc(COCC3CC3)cc(COCC(F)(F)F)n2)ccc1-n1cnc(C)c1 [Example 16, 4-((Cyclopropylmethoxy)methyl)-N-(3-methoxy-4-(4-methyl-1H-imidazol-1-yl)phenyl)-6-((2,2,2-trifluoroethoxy)methyl)pyrimidin-2-amine]
IC50 (Aβ42 [1]): 79.4 nM | IC50 (Aβ42 [2]): 50.1 nM

COc1cc(Nc2nc(COCC3CC(F)(F)C3)cc(C(C)(C)O)n2)ccc1-n1cnc(C)c1 [Example 17, 2-(6-(((3,3-Difluorocyclobutyl)methoxy)methyl)-2-(3-methoxy-4-(4-methyl-1H-imidazol-1-yl)phenylamino)pyrimidin-4-yl)propan-2-ol]
IC50 (Aβ42 [1]): 200 nM | IC50 (Aβ42 [2]): 200 nM

COc1cc(Nc2nc(COC(CF)CF)cc(C(C)(C)O)n2)ccc1-n1cnc(C)c1 [Example 50, 2-(6-((1,3-Difluoropropan-2-yloxy)methyl)-2-(3-methoxy-4-(4-methyl-1H-imidazol-1-yl)phenylamino)pyrimidin-4-yl)propan-2-ol]
IC50 (Aβ42 [1]): 63.1 nM | IC50 (Aβ42 [2]): 79.4 nM

CNc1cc(COCC(F)(F)F)nc(Nc2ccc(-n3cnc(C)c3)cc2)n1 [Example 2, N^4-Methyl-N^2-(4-(4-methyl-1H-imidazol-1-yl)phenyl)-6-((2,2,2-trifluoroethoxy)methyl)-pyrimidine-2,4-diamine]
IC50 (Aβ42 [1]): 63.1 nM | IC50 (Aβ42 [2]): 31.6 nM

COc1cc(Nc2nc(COCC3CC3)cc(C(C)(C)O)n2)ccc1-n1cnc(C)c1 [Example 29, 2-(6-((Cyclopropylmethoxy)methyl)-2-(3-methoxy-4-(4-methyl-1H-imidazol-1-yl)phenylamino)pyrimidin-4-yl)propan-2-ol]
IC50 (Aβ42 [1]): 63.1 nM | IC50 (Aβ42 [2]): 39.8 nM

COc1cc(Nc2nc(COCC(F)(F)F)cc(CN3CC(F)C3)n2)ccc1-c1cnnc(C)c1 [Example 42, 4-((3-Fluoroazetidin-1-yl)methyl)-N-(3-methoxy-4-(6-methylpyridazin-4-yl)phenyl)-6-((2,2,2-trifluoroethoxy)methyl)pyrimidin-2-amine]
IC50 (Aβ42 [1]): 251 nM | IC50 (Aβ42 [2]): 79.4 nM

COc1cc(Nc2nc(COCC(F)(F)F)cc(N3CCC3)n2)ccc1-n1cnc(C)c1 [Example 20, 4-(Azetidin-1-yl)-N-(3-methoxy-4-(4-methyl-1H-imidazol-1-yl)phenyl)-6-((2,2,2-trifluoroethoxy)methyl)pyrimidin-2-amine]
IC50 (Aβ42 [1]): 100 nM | IC50 (Aβ42 [2]): 39.8 nM

COc1cc(Nc2nc(COCC(F)(F)F)cc(NCC3CC3)n2)ccc1-n1cnc(C)c1 [Example 33, N^4-(Cyclopropylmethyl)-N^2-(3-methoxy-4-(4-methyl-1H-imidazol-1-yl)phenyl)-6-((2,2,2-trifluoroethoxy)methyl)pyrimidine-2,4-diamine]
IC50 (Aβ42 [1]): 50.1 nM | IC50 (Aβ42 [2]): 39.8 nM

COc1cc(Nc2nc(COCC(F)(F)F)cc(NC3COC3)n2)ccc1-n1cnc(C)c1 [Example 35, N^2-(3-Methoxy-4-(4-methyl-1H-imidazol-1-yl)phenyl)-N^4-(oxetan-3-yl)-6-((2,2,2-trifluoroethoxy)methyl)pyrimidine-2,4-diamine]
IC50 (Aβ42 [1]): 25.1 nM | IC50 (Aβ42 [2]): 50.1 nM

COc1cc(Nc2nc(COCC(F)(F)F)cc(C(C)(C)O)n2)ccc1-c1cnc(C)o1 [Example 46, 2-(2-(3-Methoxy-4-(2-methyloxazol-5-yl)phenylamino)-6-((2,2,2-trifluoroethoxy)methyl)-pyrimidin-4-yl)propan-2-ol]
IC50 (Aβ42 [1]): 79.4 nM | IC50 (Aβ42 [2]): 39.8 nM

COc1cc(Nc2nc(C(C)O)cc(C(C)OCC(F)(F)F)n2)ccc1-n1cnc(C)c1 (centres unmarked) [Example 7, 1-(2-(3-Methoxy-4-(4-methyl-1H-imidazol-1-yl)phenylamino)-6-(1-(2,2,2-trifluoroethoxy)-ethyl)pyrimidin-4-yl)ethanol]
IC50 (Aβ42 [1]): 31.6 nM | IC50 (Aβ42 [2]): 31.6 nM

COc1cc(Nc2nc(COCC(F)(F)F)cc(CN(C)C)n2)ccc1-n1cnc(C)c1 [Example 41, 4-((Dimethylamino)methyl)-N-(3-methoxy-4-(4-methyl-1H-imidazol-1-yl)phenyl)-6-((2,2,2-trifluoroethoxy)methyl)pyrimidin-2-amine]
IC50 (Aβ42 [2]): 158 nM

COc1cc(Nc2nc(COCC(F)(F)F)cc(C(C)(C)O)n2)ccc1-n1cnc(C)c1 [Example 15, 2-(2-(3-Methoxy-4-(4-methyl-1H-imidazol-1-yl)phenylamino)-6-((2,2,2-trifluoroethoxy)-methyl)pyrimidin-4-yl)propan-2-ol]
IC50 (Aβ42 [1]): 50.1 nM | IC50 (Aβ42 [2]): 31.6 nM

COc1cc(Nc2nc(COCC(F)(F)F)cc(C(O)C(C)C)n2)ccc1-n1cnc(C)c1 (centres unmarked) [Example 14, 1-(2-(3-Methoxy-4-(4-methyl-1H-imidazol-1-yl)phenylamino)-6-((2,2,2-trifluoroethoxy)methyl)pyrimidin-4-yl)-2-methylpropan-1-ol]
IC50 (Aβ42 [1]): 39.8 nM

COc1cc(Nc2nc(CO)cc(COCC(F)(F)F)n2)ccc1-n1cnc(C)c1 [Example 10, (2-(3-Methoxy-4-(4-methyl-1H-imidazol-1-yl)phenylamino)-6-((2,2,2-trifluoroethoxy)methyl)pyrimidin-4-yl)methanol]
IC50 (Aβ42 [1]): 31.6 nM | IC50 (Aβ42 [2]): 63.1 nM

COc1cc(Nc2nc(COCC(F)(F)F)cc(NC(C)C)n2)ccc1-n1cnc(C)c1 [Example 8, N^4-Isopropyl-N^2-(3-methoxy-4-(4-methyl-1H-imidazol-1-yl)phenyl)-6-((2,2,2-trifluoroethoxy)methyl)pyrimidine-2,4-diamine]
IC50 (Aβ42 [1]): 20 nM | IC50 (Aβ42 [2]): 31.6 nM

COc1cc(Nc2nc(COCC3CC3)cc(N3CCC3)n2)ccc1-n1cnc(C)c1 [Example 1, 4-(Azetidin-1-yl)-6-((cyclopropylmethoxy)methyl)-N-(3-methoxy-4-(4-methyl-1H-imidazol-1-yl)phenyl)pyrimidin-2-amine]
IC50 (Aβ42 [1]): 50.1 nM | IC50 (Aβ42 [2]): 20 nM

COc1cc(Nc2nc(CNCc3ccccc3)cc(COCC(F)(F)F)n2)ccc1-c1cnnc(C)c1 [Example 39, 4-((Benzylamino)methyl)-N-(3-methoxy-4-(6-methylpyridazin-4-yl)phenyl)-6-((2,2,2-trifluoroethoxy)methyl)pyrimidin-2-amine]
IC50 (Aβ42 [1]): 200 nM | IC50 (Aβ42 [2]): 126 nM

COc1cc(Nc2nc(COCC(F)(F)F)cc(C(C)O)n2)ccc1-n1cnc(C)c1 (centres unmarked) [Example 44, 1-(2-(3-Methoxy-4-(4-methyl-1H-imidazol-1-yl)phenylamino)-6-((2,2,2-trifluoroethoxy)-methyl)pyrimidin-4-yl)ethanol]
IC50 (Aβ42 [1]): 100 nM | IC50 (Aβ42 [2]): 50.1 nM

COc1cc(Nc2nc(COCC(F)(F)F)c(C)c(C(C)(C)O)n2)ccc1-n1cnc(C)c1 [Example 5, 2-(2-(3-Methoxy-4-(4-methyl-1H-imidazol-1-yl)phenylamino)-5-methyl-6-((2,2,2-trifluoroethoxy)methyl)pyrimidin-4-yl)propan-2-ol]
IC50 (Aβ42 [1]): 20 nM | IC50 (Aβ42 [2]): 20 nM

CNc1nc(Nc2ccc(-n3cnc(C)c3)c(OC)c2)nc(COCC(F)(F)F)c1C [Example 4, N^2-(3-Methoxy-4-(4-methyl-1H-imidazol-1-yl)phenyl)-N^4,5-dimethyl-6-((2,2,2-trifluoroethoxy)methyl)pyrimidine-2,4-diamine]
IC50 (Aβ42 [1]): 10 nM | IC50 (Aβ42 [2]): 25.1 nM

COc1cn(-c2ccc(Nc3nc(COCC(F)(F)F)cc(C(C)O)n3)cc2OC)cn1 (centres unmarked) [Example 31, 1-(2-(3-Methoxy-4-(4-methoxy-1H-imidazol-1-yl)phenylamino)-6-((2,2,2-trifluoroethoxy)-methyl)pyrimidin-4-yl)ethanol]
IC50 (Aβ42 [1]): 316 nM | IC50 (Aβ42 [2]): 251 nM

COc1cc(Nc2nc(COCC3CC(F)(F)C3)cc(C(C)(C)O)n2)ccc1-c1cnnc(C)c1 [Example 19, 2-(6-(((3,3-Difluorocyclobutyl)methoxy)methyl)-2-(3-methoxy-4-(6-methylpyridazin-4-yl)phenylamino)pyrimidin-4-yl)propan-2-ol]
IC50 (Aβ42 [2]): 200 nM
